Laboratory results reported in patent US9040528B2, “Chemical compounds 542” (AstraZeneca AB, priority 2008, dated 2015).

These compounds were tested against Escherichia coli DNA gyrase A/B tetramer (Escherichia coli (strain K12), UniProt P0AES4+P0AES6) (assay: DNA gyrase supercoiling activity fluorescence polarisation assay). Conditions: not given.
Assay type: biochemical
In short: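 Supercoiling reactions quenched with 40 nM 5′-BODIPY-FL triplex-forming oligonucleotide probe in pH 3.5 NaCl/sodium acetate buffer; after 60 min, fluorescence anisotropy read (ex 485/em 535 nm). IC50 by nonlinear regression, normalised to 0.8% DMSO (100% activity) and 5 μM ciprofloxacin (0% activity).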

First: C[C@@H]1CN2c3c(cc4c(C(=O)N5CC(C#N)C5)noc4c3F)CC3(C(=O)NC(=O)NC3=O)[C@H]2[C@H](C)O1 (relative stereo) [Example 164, 1-((2R,4 S,4 aS)-rel-11-fluoro-2,4-dimethyl-2′,4′,6′-trioxo-2,2′,3′,4,4a,4′,6,6′-octahydro-1H,1′H-spiro[isoxazolo[4,5-g][1,4]oxazino[4,3-a]quinoline-5,5′-pyrimidine]-8-ylcarbonyl)azetidine-3-carbonitrile]
Second: Cc1noc2c(F)c3c(cc12)CC1(C(=O)NC(=O)NC1=O)[C@H]1[C@H](C)O[C@H](C)CN31 (relative stereo) [Example 2, (2R,4S,4aS)-rel-11-fluoro-2,4,8-trimethyl-1,2,4,4a-tetrahydro-2′H,6H-spiro[isoxazolo[4,5-g][1,4]oxazino[4,3-a]quinoline-5,5′-pyrimidine]-2′,4′,6′(1′H,3′H)-trione]
The IC50 of the first is 3-fold higher: 1200 nM for the first, 400 nM for the second. The second is the more potent here.

Same assay, conditions: 5 nM enzyme, relaxed plasmid, 0.3 mM ATP, ambient temperature; read-out: E. coli DNA gyrase supercoiling IC50

First: C[C@@H]1CN2c3c(cc4c(N5CCOCC5)noc4c3F)CC3(C(=O)NC(=O)NC3=O)[C@H]2[C@H](C)O1 (relative stereo) [Example 22, (2R,4S,4aS)-rel-11-fluoro-2,4-dimethyl-8-(morpholin-4-yl)-1,2,4,4a-tetrahydro-2′H,6H-spiro[isoxazolo[4,5-g][1,4]oxazino[4,3-a]quinoline-5,5′-pyrimidine]-2′,4′,6′(1′H,3′H)-trione]
Second: C[C@@H]1CN2c3c(cc4c(-c5cnc(N6CCOCC6)cn5)noc4c3F)CC3(C(=O)NC(=O)NC3=O)[C@H]2[C@H](C)O1 [Example 166(b), (2R,4S,4aS)-11-fluoro-2,4-dimethyl-8-(5-morpholinopyrazin-2-yl)-2,4,4a,6-tetrahydro-1H,1′H-spiro[isoxazolo[4,5-g][1,4]oxazino[4,3-a]quinoline-5,5′-pyrimidine]-2′,4′,6′(3′H)-trione]
The IC50 of the first is 2.7-fold lower: 2600 nM for the first, 6900 nM for the second.

First: Cc1cc(C(F)F)nn1-c1noc2c(F)c3c(cc12)CC1(C(=O)NC(=O)NC1=O)[C@H]1[C@H](C)O[C@H](C)CN31 (relative stereo) [Example 30, (2R,4S,4aS)-rel-8-[3-(difluoromethyl)-5-methyl-1H-pyrazol-1-yl]-11-fluoro-2,4-dimethyl-1,2,4,4a-tetrahydro-2′H,6H-spiro[isoxazolo[4,5-g][1,4]oxazino[4,3-a]quinoline-5,5′-pyrimidine]-2′,4′,6′(1′H,3′H)-trione]
Second: C[C@@H]1CN2c3c(cc4c(-n5cc(C#N)c(N)n5)noc4c3F)CC3(C(=O)NC(=O)NC3=O)[C@H]2[C@H](C)O1 (relative stereo) [Example 33, 3-amino-1-[(2R,4S,4aS)-rel-11-fluoro-2,4-dimethyl-2′,4′,6′-trioxo-1,1′,2,3′,4,4′,4a,6′-octahydro-2′H,6H-spiro[1,4-oxazino[4,3-a][1,2]oxazolo[4,5-g]quinoline-5,5′-pyrimidin]-8-yl]-1H-pyrazole-4-carbonitrile]
The IC50 of the first is 5.4-fold higher: 5400 nM for the first, 1000 nM for the second.

Compared with `C[C@@H]1CN2c3c(cc4c(-c5ccncc5)noc4c3F)CC3(C(=O)NC(=O)NC3=O)[C@H]2[C@H](C)O1` (relative stereo) [Example 82, (2R,4S,4aS)-rel-11-fluoro-2,4-dimethyl-8-(pyridin-4-yl)-2,4,4a,6-tetrahydro-1H,1′H-spiro[isoxazolo[4,5-g][1,4]oxazino[4,3-a]quinoline-5,5′-pyrimidine]-2′,4′,6′(3′H)-trione], `Cc1ccc(-c2noc3c(F)c4c(cc23)CC2(C(=O)NC(=O)NC2=O)[C@H]2[C@H](C)O[C@H](C)CN42)cn1` (relative stereo) [Example 91, (2R,4S,4aS)-rel-11-fluoro-2,4-dimethyl-8-(6-methylpyridin-3-yl)-2,4,4a,6-tetrahydro-1H,1′H-spiro[isoxazolo[4,5-g][1,4]oxazino[4,3-a]quinoline-5,5′-pyrimidine]-2′,4′,6′(3′H)-trione] is 9.5-fold higher in IC50: 200 nM for the first, 1900 nM for the second. The first is the more potent here.

First: CNC(=O)c1noc2c(F)c3c(cc12)CC1(C(=O)NC(=O)NC1=O)[C@H]1[C@H](C)O[C@H](C)CN31 [Example 140(a), (2R,4S,4aS)-11-fluoro-N,2,4-trimethyl-2′,4′,6′-trioxo-2,2′,3′,4,4a,4′,6,6′-octahydro-1H,1′H-spiro[isoxazolo[4,5-g][1,4]oxazino[4,3-a]quinoline-5,5′-pyrimidine]-8-carboxamide]
Second: C[C@@H]1CN2c3c(cc4c(C(=O)NC5CN(C)C5)noc4c3F)CC3(C(=O)NC(=O)NC3=O)[C@H]2[C@H](C)O1 (relative stereo) [Example 159, (2R,4S,4aS)-rel-11-fluoro-2,4-dimethyl-N-(1-methylazetidin-3-yl)-2′,4′,6′-trioxo-2,2′,3′,4,4a,4′,6,6′-octahydro-1H,1′H-spiro[isoxazolo[4,5-g][1,4]oxazino[4,3-a]quinoline-5,5′-pyrimidine]-8-carboxamide]
The IC50 of the first is 1.6-fold lower: 900 nM for the first, 1400 nM for the second.

`C[C@@H]1CN2c3c(cc4c(-c5scnc5C#N)noc4c3F)CC3(C(=O)NC(=O)NC3=O)[C@H]2[C@H](C)O1` (relative stereo) [Example 88, 5-[(2R,4S,4aS)-rel-11-fluoro-2,4-dimethyl-2′,4′,6′-trioxo-1,1′,2,3′,4,4′,4a,6′-octahydro-2′H,6H-spiro[1,4-oxazino[4,3-a][1,2]oxazolo[4,5-g]quinoline-5,5′-pyrimidin]-8-yl]-1,3-thiazole-4-carbonitrile] and `COc1noc2c(F)c3c(cc12)CC1(C(=O)NC(=O)NC1=O)[C@H]1[C@H](C)O[C@H](C)CN31` (relative stereo) [Example 51, (2R,4S,4aS)-rel-11-fluoro-8-methoxy-2,4-dimethyl-1,2,4,4a-tetrahydro-2′H,6H-spiro[1,4-oxazino[4,3-a][1,2]oxazolo[4,5-g]quinoline-5,5′-pyrimidine]-2′,4′,6′(1′H,3′H)-trione] are within 1.5-fold of each other in IC50: 1200 nM for the first, 1000 nM for the second.

`C[C@@H]1CN2c3c(nc4c(-c5nccs5)noc4c3Cl)CC3(C(=O)NC(=O)NC3=O)[C@H]2[C@H](C)O1` [Example 111(b), (2R,4S,4aS)-11-chloro-2,4-dimethyl-8-(thiazol-2-yl)-2,4,4a,6-tetrahydro-1H,1′H-spiro[isoxazolo[4,5-g][1,4]oxazino[4,3-a][1,5]naphthyridine-5,5′-pyrimidine]-2′,4′,6′(3′H)-trione] and `C[C@@H]1CN2c3c(nc4c(-c5ccccn5)noc4c3Cl)CC3(C(=O)NC(=O)NC3=O)[C@H]2[C@H](C)O1` (relative stereo) [Example 107, (2R,4S,4aS)-rel-11-chloro-2,4-dimethyl-8-(pyridyin-2-yl)-2,4,4a,6-tetrahydro-1H,1′H-spiro[isoxazolo[4,5-g][1,4]oxazino[4,3-a][1,5]naphthyridine-5,5′-pyrimidine]-2′,4′,6′(3′H)-trione] are within 1.5-fold of each other in IC50: 1100 nM for the first, 1400 nM for the second.

Compared with `COc1cncc(-c2noc3c(F)c4c(cc23)CC2(C(=O)NC(=O)NC2=O)[C@H]2[C@H](C)O[C@H](C)CN42)n1` [Example 167, (2R,4S,4aS)-11-fluoro-8-(6-methoxypyrazin-2-yl)-2,4-dimethyl-2,4,4a,6-tetrahydro-1H,1′H-spiro[isoxazolo[4,5-g][1,4]oxazino[4,3-a]quinoline-5,5′-pyrimidine]-2′,4′,6′(3′H)-trione], `COCCNc1nccc(-c2noc3c(F)c4c(cc23)CC2(C(=O)NC(=O)NC2=O)[C@H]2[C@H](C)O[C@H](C)CN42)n1` [Example 170, (2R,4S,4aS)-11-fluoro-8-(2-(2-methoxyethylamino)pyrimidin-4-yl)-2,4-dimethyl-2,4,4a,6-tetrahydro-1H,1′H-spiro[isoxazolo[4,5-g][1,4]oxazino[4,3-a]quinoline-5,5′-pyrimidine]-2′,4′,6′(3′H)-trione] is 1.6-fold lower in IC50: 1100 nM for the first, 700 nM for the second.

Going from `COC[C@@H]1O[C@H](C)CN2c3c(cc4c(C)noc4c3F)CC3(C(=O)NC(=O)NC3=O)[C@@H]12` (relative stereo) [Example 105, (2R,4R,4aS)-rel-11-fluoro-4-(methoxymethyl)-2,8-dimethyl-1,2,4,4a-tetrahydro-2′H,6H-spiro[1,4-oxazino[4,3-a][1,2]oxazolo[4,5-g]quinoline-5,5′-pyrimidine]-2′,4′,6′(1′H,3′H)-trione] to `C[C@H]1CN2c3c(cc4c(C(F)(F)F)noc4c3F)CC3(C(=O)NC(=O)NC3=O)[C@@H]2[C@@H](C)O1` [Example 92(a), (2S,4R,4aR)-11-fluoro-2,4-dimethyl-8-(trifluoromethyl)-2,4,4a,6-tetrahydro-1H,1′H-spiro[isoxazolo[4,5-g][1,4]oxazino[4,3-a]quinoline-5,5′-pyrimidine]-2′,4′,6′(3′H)-trione], the IC50 rises from 700 nM to 65000 nM (93-fold).

First: C[C@@H]1CN2c3c(cc4c(NCc5cccnc5)noc4c3F)CC3(C(=O)NC(=O)NC3=O)[C@H]2[C@H](C)O1 (relative stereo) [Example 15, (2R,4S,4aS)-rel-11-fluoro-2,4-dimethyl-8-[(pyridin-3-ylmethyl)amino]-1,2,4,4a-tetrahydro-2′H,6H-spiro[1,4-oxazino[4,3-a][1,2]oxazolo[4,5-g]quinoline-5,5′-pyrimidine]-2′,4′,6′(1′H,3′H)-trione]
Second: C[C@@H]1CN2c3c(cc4c(-c5ccnc(NCCO)n5)noc4c3F)CC3(C(=O)NC(=O)NC3=O)[C@H]2[C@H](C)O1 [Example 171, (2R,4S,4aS)-11-fluoro-8-(2-(2-hydroxyethylamino)pyrimidin-4-yl)-2,4-dimethyl-2,4,4a,6-tetrahydro-1H,1′H-spiro[isoxazolo[4,5-g][1,4]oxazino[4,3-a]quinoline-5,5′-pyrimidine]-2′,4′,6′(3′H)-trione]
The IC50 of the first is 3.3-fold higher: 1000 nM for the first, 300 nM for the second. The second is the more potent here.

Work on `Cc1c2c(cc3c(-c4cnccn4)noc13)CC1(C(=O)NC(=O)NC1=O)[C@H]1[C@H](C)O[C@H](C)CN21` (relative stereo) [Example 101, (2R,4S,4aS)-rel-2,4,11-trimethyl-8-(pyrazin-2-yl)-1,2,4,4a-tetrahydro-2′H,6H-spiro[1,4-oxazino[4,3-a][1,2]oxazolo[4,5-g]quinoline-5,5′-pyrimidine]-2′,4′,6′(1′H,3′H)-trione] yielded an IC50 of 1400 nM.
